What was measured:
BRAF = biological target: T1, BRAF (Homo sapiens, UniProt P15056); assay: BRAF-inhibiting activity (time-resolved fluorescence-fluorescence resonance energy transfer assay); type: biochemical; conditions: MEK1, ATP-containing buffer
T1 construct: purchased Eurofins Genomics KK
Method: The BRAF-inhibiting activity of the compounds listed in Table 2 below was evaluated by the time-resolved fluorescence-fluorescence resonance energy transfer assay as described below.

[1] = system: A549 human lung cancer cells; assay: Cell proliferation-inhibiting activity, A549 (CellTiter-Glo); type: cell-based; conditions: A549, 96 h
[2] = Human liver microsome stability; type: in vitro ADME; conditions: pH 7.4; human liver microsomes, NADPH, 37° C.
Method: The compounds listed in Table 2 below were tested for metabolic stability in human liver microsomes as described below using a Biomek3000 (Beckman Coulter). There were dispensed 400 ILL of 1 mg/mL human liver microsomes (XENOTECH)/0.1 M potassium phosphate buffer (pH 7.4) into each well of a 96-well plate. A DMSO solution (4 μL) of 200 μM test compound was then added, and incubation was conducted until reaching 37° C. To this reaction mixture (200 IL) there was added a solution (200 μL) containing 2 mM NADPH (ORIENTAL YEAST)/0.1 M potassium phosphate buffer (pH 7.4) that had been incubated at 37° C. At 0 min, 5 min, 15 min or 30 min after addition, the reaction mixture (50 μL) was added to acetonitrile (100 μL) to stop the metabolic reaction. After the metabolic reaction was stopped, a 1 μM warfarin aqueous solution (50 μL) was added to each reaction mixture as an internal standard. […] The percent remaining relative to the amount of test compound at 0 min was calculated from the obtained peak area ratio of the test compound to internal standard. The elimination rate constant (ke) was calculated from the incubation time and percent remaining using the primary elimination rate equation, and the hepatic intrinsic clearance (CLint) was calculated using the formula shown below. […]

T1 sequence (P15056 whole entry): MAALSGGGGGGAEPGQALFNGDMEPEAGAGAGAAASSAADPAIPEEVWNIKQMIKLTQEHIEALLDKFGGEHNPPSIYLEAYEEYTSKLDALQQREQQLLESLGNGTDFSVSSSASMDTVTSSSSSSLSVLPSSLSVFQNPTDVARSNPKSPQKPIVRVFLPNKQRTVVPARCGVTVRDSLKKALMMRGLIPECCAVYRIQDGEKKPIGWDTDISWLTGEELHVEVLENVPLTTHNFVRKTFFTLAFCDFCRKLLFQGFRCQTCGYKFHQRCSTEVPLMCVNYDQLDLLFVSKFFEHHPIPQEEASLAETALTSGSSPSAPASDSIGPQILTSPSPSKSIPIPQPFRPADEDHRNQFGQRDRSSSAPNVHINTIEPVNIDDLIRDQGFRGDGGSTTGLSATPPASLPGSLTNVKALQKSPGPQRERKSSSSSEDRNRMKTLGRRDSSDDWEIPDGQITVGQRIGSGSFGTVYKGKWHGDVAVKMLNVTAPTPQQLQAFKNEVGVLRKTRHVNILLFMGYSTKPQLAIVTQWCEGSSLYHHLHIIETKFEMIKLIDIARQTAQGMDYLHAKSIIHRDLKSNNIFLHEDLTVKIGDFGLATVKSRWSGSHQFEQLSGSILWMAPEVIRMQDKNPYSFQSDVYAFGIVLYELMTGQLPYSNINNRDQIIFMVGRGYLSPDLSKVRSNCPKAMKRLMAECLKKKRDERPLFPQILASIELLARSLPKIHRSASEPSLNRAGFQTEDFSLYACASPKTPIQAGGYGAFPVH
T1 sequence (Q02750 whole entry partner): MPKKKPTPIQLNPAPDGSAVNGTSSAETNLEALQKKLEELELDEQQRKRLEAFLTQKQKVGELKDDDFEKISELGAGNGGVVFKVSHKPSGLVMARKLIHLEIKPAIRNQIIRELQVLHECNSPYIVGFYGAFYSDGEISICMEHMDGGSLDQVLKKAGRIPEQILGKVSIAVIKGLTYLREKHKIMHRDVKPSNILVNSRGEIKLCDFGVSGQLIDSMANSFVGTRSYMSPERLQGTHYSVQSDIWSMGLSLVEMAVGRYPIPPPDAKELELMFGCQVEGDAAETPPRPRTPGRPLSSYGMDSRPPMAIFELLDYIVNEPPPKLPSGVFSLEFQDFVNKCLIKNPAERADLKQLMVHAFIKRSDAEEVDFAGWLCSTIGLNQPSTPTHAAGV

Row | IC50 (BRAF) [nM] | SMILES | IC50 [1] [nM] | further results
1 | 1 | NC(=O)c1cc(Cc2ccnc(NS(=O)(=O)NC3CCOCC3)c2F)c(F)c(F)c1Nc1ccc(I)cc1F [Sample A-29, 3,4-Difluoro-2-(2-fluoro-4-iodoanilino)-5-[[3-fluoro-2-(oxan-4-ylsulfamoylamino)pyridin-4-yl]methyl]benzamide] |  | 
2 | 9 | CCNS(=O)(=O)Nc1nccc(Cc2cc(C(=O)NOCCO)c(Nc3ccc(I)cc3F)c(F)c2F)c1F [Sample A-44, 5-[[2-(Ethylsulfamoylamino)-3-fluoropyridin-4-yl]methyl]-3,4-difluoro-2-(2-fluoro-4-iodoanilino)-N-(2-hydroxyethoxy)benzamide] |  | 
3 |  | CC1(NS(=O)(=O)Nc2nccc(Cc3cc(C(N)=O)c(Nc4ccc(I)cc4F)c(F)c3F)c2F)CCC1 [Sample A-35, 3,4-difluoro-2-(2-fluoro-4-iodoanilino)-5-[[3-fluoro-2-[(1-methylcyclobutyl)sulfamoylamino]pyridin-4-yl]methyl]benzamide] | 2 | 
4 |  | NC(=O)c1cc(Cc2ccnc(NS(=O)(=O)NC3C4COCC43)c2F)c(F)c(F)c1Nc1ccc(I)cc1F (centres unmarked) [Sample A-22, 3,4-Difluoro-2-(2-fluoro-4-iodoanilino)-5-[[3-fluoro-2-(3-oxabicyclo[3.1.0]hexan-6-ylsulfamoylamino)pyridin-4-yl]methyl]benzamide] |  | microsomal CLint at 0.99 µM [2]: 47 µL/min/mg
5 |  | NC(=O)c1cc(Cc2ccnc(NS(=O)(=O)NCC3COC3)c2F)c(F)c(F)c1Nc1ccc(I)cc1F [Sample A-21, 3,4-difluoro-2-(2-fluoro-4-iodoanilino)-5-[[3-fluoro-2-(oxetan-3-ylmethylsulfamoylamino)pyridin-4-yl]methyl]benzamide] | 3 | 

Source: patent publication US20230270730A1, “COMPOSITION CONTAINING ARYLAMIDE DERIVATIVE” (Chugai Seiyaku Kabushiki Kaisha, priority 2020, published 2023)
